# Molecular target: T1, Cav2.2-CRMP2 interaction (Mus musculus, UniProt O55017)
# T1 construct: a mouse neuronal cell line expressing both CRMP2 and Cav2.2; endogenous in cells; host or cells: mouse CAD cells (ECACC Cat #08100805)
# Assay: CRMP2 immunoprecipitation to detect Cav2.2 in CAD cells
# Format: cell-based
# Protocol: Mouse neuron derived Cathecholamine A differentiated CAD cells (ECACC Cat #08100805, RRID: CVCL_0199) were grown in standard cell culture conditions, 37° C. in 5% (vol/vol) CO2. The cells were maintained in DMEM/F12 media supplemented with 10% (vol/vol) FBS (HyClone) and 1% penicillin/streptomycin sulfate from 10,000 μg/mL stock.
# CAD cells were incubated overnight with a vehicle (0.1% DMSO) or CBD3063 (20 μM). The next day the cells were lysed into the IP buffer containing 20 mM Tris-HCl pH=7.4, 50 mM NaCl, 2 mM MgCl2, 10 mM N-Ethylmaleimide (NEM), 1% (vol/vol) NP-40, 0.5% (mass/vol) sodium deoxycholate, 0.1% (mass/vol) sodium dodecyl sulfate (SDS) with protease inhibitors (Cat #B14002, Biotool, Houston, TX), phosphatase inhibitors (Cat #B15002, Biotool, Houston, TX) and Nuclease (Cat #88701, Thermo Fisher Scientific, Waltham, MA). Total protein concentration was determined by BCA protein assay kit (Cat #PI23225, Thermo Fisher Scientific, Waltham, MA). Five hundred micrograms of total protein were incubated overnight with 2 μg of CRMP2 antibody (Cat #C2993, Sigma-Aldrich, St. Louis, MO) at 4° C. under gentle agitation. Protein G magnetic beads (Cat #10004D, Thermo Fisher Scientific, Waltham, MA), pre-equilibrated with the immunoprecipitation buffer, were then added to the lysates and incubated for 2 hours at 4° C. to capture immuno-complexes. […]
# T1 sequence (O55017 whole entry): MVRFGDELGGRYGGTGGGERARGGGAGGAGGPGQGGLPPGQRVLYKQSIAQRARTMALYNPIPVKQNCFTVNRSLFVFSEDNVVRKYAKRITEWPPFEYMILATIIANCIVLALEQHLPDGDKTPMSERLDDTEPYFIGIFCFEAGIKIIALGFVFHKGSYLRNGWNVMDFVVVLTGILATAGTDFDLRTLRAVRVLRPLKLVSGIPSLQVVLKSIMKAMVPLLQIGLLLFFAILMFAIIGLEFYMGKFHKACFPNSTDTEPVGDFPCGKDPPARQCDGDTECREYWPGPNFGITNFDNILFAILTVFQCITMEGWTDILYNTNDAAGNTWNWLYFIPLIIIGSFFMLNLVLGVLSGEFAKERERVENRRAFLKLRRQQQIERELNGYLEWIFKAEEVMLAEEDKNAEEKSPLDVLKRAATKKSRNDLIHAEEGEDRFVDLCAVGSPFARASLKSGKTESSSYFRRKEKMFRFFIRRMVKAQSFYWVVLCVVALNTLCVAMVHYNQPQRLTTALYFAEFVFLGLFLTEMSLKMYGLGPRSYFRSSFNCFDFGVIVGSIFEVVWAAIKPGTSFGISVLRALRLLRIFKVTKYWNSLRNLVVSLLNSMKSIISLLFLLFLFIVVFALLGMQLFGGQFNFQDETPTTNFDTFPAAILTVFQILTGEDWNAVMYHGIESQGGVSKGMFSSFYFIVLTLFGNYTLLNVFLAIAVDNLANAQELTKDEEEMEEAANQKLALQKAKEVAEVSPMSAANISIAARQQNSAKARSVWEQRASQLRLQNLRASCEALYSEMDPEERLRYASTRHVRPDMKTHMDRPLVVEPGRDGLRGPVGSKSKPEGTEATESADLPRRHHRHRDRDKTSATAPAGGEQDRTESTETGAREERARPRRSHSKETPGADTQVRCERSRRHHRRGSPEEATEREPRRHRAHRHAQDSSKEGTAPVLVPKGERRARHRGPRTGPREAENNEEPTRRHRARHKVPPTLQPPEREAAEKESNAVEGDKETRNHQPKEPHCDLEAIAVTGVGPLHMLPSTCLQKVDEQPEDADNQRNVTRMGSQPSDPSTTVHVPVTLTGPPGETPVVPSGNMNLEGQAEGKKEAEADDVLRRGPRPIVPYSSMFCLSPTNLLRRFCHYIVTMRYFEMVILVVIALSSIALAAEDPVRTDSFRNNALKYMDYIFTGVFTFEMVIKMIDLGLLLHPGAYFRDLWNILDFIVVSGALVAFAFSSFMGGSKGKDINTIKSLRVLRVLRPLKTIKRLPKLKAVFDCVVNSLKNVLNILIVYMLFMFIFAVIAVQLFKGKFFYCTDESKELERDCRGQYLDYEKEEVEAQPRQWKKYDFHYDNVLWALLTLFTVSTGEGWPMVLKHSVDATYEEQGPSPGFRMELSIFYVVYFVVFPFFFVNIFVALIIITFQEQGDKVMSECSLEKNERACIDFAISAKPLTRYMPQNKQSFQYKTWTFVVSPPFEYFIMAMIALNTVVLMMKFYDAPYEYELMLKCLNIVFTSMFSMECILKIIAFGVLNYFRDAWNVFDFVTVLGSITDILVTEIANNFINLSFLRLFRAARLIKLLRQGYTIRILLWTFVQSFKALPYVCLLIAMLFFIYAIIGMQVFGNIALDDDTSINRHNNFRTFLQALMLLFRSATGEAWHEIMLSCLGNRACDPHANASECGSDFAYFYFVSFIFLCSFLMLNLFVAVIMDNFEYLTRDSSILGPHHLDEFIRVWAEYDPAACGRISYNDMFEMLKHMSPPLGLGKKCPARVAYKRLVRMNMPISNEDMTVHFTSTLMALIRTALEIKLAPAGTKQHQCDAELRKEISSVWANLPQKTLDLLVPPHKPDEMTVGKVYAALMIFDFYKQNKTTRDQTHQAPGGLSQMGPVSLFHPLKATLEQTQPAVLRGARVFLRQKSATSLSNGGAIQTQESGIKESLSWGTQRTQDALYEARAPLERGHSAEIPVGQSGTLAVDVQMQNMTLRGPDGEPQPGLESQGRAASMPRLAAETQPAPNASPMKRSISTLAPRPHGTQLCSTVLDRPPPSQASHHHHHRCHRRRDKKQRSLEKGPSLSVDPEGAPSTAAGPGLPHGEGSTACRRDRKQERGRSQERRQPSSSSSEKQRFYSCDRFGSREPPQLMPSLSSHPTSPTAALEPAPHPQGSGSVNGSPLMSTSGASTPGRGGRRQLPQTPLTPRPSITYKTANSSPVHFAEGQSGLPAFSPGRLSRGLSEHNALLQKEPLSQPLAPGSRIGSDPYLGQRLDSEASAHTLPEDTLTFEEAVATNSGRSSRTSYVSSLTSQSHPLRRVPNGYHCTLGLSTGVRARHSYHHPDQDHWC
smiles,measurement,setting,value
"CC(=O)N[C@@H]1CCCN(C(=O)NCCCNc2ccccn2)C1 [CBD3063, (3R)-3-acetamido-N-[3-(pyridin-2-ylamino)propyl]piperidine-1-carboxamide]",relative Cav2.2 binding to CRMP2,20 μM overnight (DMSO: 1.00±0.05),0.64±0.02
same,reduction in the level of Cav2.2 protein immunoprecipitated by CRMP2,"20 μM overnight, versus control",~35%

# — US20250017940A1, “SELECTIVE PEPTIDOMIMETIC MODULATORS OF CAV2.2 (N-TYPE) VOLTAGE-GATED CALCIUM CHANNELS AND USES THEREOF” (New York University, priority 2023, published 2025)
